From US20110105436A1, “HETEROARYL COMPOUNDS, COMPOSITIONS, AND METHODS OF USE IN CANCER TREATMENT” (AUCKLAND UNISERVICES LIMITED, priority 2008, published 2011) come the findings set out here.

Type in all cases: cell-based
One assay relates to RCC4 and RCC4/VHL cells. Nature of the assay: Apoptosis by Hoechst, Annexin V staining and caspase-3. The following applies: in vitro, VHL-deficient cells, 1.25 μM; confirmed by caspase-3 in tumor sections. As for the experimental part: B. XTT assay in RCC4 and RCC4/VHL in presence of STF-62247 (0-40 μM). Each point of the cell survival is calculated by the average of three different experiments in duplicate as the percent of treated on untreated plate. The error bars are represented as the standard error of the mean (SEM) C. qRT-PCR for Glutl, VEGF, PDF and PGK in RCC4 cells with or without HIF-1a, HIF-2a shRNA and in RCC4/VHL. D. Hoescht staining in RCC4 and RCC4/VHL cells with 1.25 μM of STF-62247 for 2 days. Camptothecin was used as positive control E. FACS analysis for apoptosis after an annexin V-FITC staining in presence or absence of propidium iodine (PI) in cells after a treatment in same conditions than in C. F. Immunoblot for active caspase-3 in RCC4 and RCC4/VHL following treatment with 1.25 μM of STF-62247 for 24 hours. Staurosporine was used as positive control (0.2 μM for 24 hours). G,H. Immunostaining of caspase-3 and Ki67 respectively in SN12C and SN12C+shVHL tumor samples untreated or treated with 30 μM of STF-62247.1. Immunoblot for p53 and SerlS phospho-p53 in RCC4 and RCC4/VHL cells after a treatment with 1.25 μM of STF-62247 or doxorubicin for 24 hours.

The test system of another assay is LC3. The experiment in a line: LC3 processing by Western blot and immunostaining. The settings on record: STF-62247 treatment, FIG. 2D, 2E. The procedure: Western blot analysis. After treatments, cells were lysed in urea buffer (9M urea, 75 mM Tris (pH 7.5), 150 mM b-mercaptoethanol), placed on ice for 10 minutes and sonicated briefly (15 seconds). Extracts were centrifugated at 8,000×g for 10 minutes to eliminate insoluble material. Lysates were quantitated using Bio-Rad protein Assay (Bio-Rad Laboratories) and 20-30 μg of proteins were separated on a 7.5% or 15% bis-acrylamide gels and then transferred onto PVDF membranes. Proteins were visualized using HIF-2α (Novus Biological), HIF-1α, pVHL and BiP (BD Biosciences), LC3 (MBL), Atg5, or α-tubulin antibodies.
Immunofluorescence staining. Cells were seeded on glass coverslips and at subconfluence, STF-62247 was added at 1.25 μM for RCC4 and 3.75 μM for SN12C. After 20 hours, cells were fixed in 3.7% formaldehyde for 10 min at room temperature and washed in PBS. Then cells were permeabilized in 0.2% Triton X-100 for 5 min at room temperature and washed in PBS. The coverslips were incubated with primary antibody LC3 diluted 1:500 in PBS containing 0.2% BSA for 1 hour at room temperature. Cells were washed three times in PBS-BSA and the bound primary antibody was detected using a fluorescein-conjugated secondary antibody (ALEXA) diluted 1:500 in PBS-BSA and incubated for 1 hour. Coverslips were washed and mounted in mounting medium from Vector Laboratories according to the manufacturer's instructions. Cells were examined with a confocal microscope
A. Phase contrast pictures of VHL-deficient RCC4 and SN12C-VHL shRNA cells and VHL-positive cells RCC4 and SN12C after 20 hrs of 1.25 μM STF-62247. B. Immunostaining for LC3 following STF-62247 treatment at 1.25 μM for 20 hrs with or without 2 mM of 3-MA in RCC4 with and without VHL cells. After treatment, cells were fixed, permeabilized and processed for the detection of punctuate staining by indirect immunofluorescence. C. Autophagic vacuoles stained with monodansylcadaverine (MDC). After STF-62247 treatment in the same conditions, MDC was added for the last 10 minutes. Cells were fixed, washed with PBS and observed directly under microscope. D. Western blot for LC3 in RCC4, RCC4/VHL, SN12C, and SN12C-VHL shRNA cells after STF-62247 treatment with or without 3-MA. Nutrient starvation (EBSS) is used as positive control. E. Western blot for LC3 in RCC4 and RCC4/VHL with different concentrations of STF-62247. Tubulin was used as loading control. F. Cell viability assay in VHL-deficient RCC4 and wild-type VHL cells treated with 1 mM of 3-MA, 1.25 μM of STF-62247 alone or in combination for 24 hrs. Viability is measured by trypan blue exclusion assay and is represented by the average of three different experiments in duplicate as the percent of treated on untreated cells. The error bars are represented as SEM.
(§1) A. VHL-deficient RCC4 and wild-type VHL were incubated in presence of 10 μM LY294002, or 1 μg/mlBrefeldin A with 1.25 μM of STF-62247 for 20 hrs and the presence of vacuoles was examined under light microscopy. B,C. LC3 processing was evaluated by Western blot after the treatment with Brefeldin A or LY294002 in presence or absence of STF-62247 as described above. Tubulin was used as loading control. D. Cells were treated with 1.25 μM of STF-62247 with or without 2 mM of 3-MA, 1 μg/ml of Brefeldin A for 20 hrs. For the last 15 min, acidic components were stained with 1 μg/ml of acridine orange and visualized under fluorescence microscope. […] F. Quantification of the FACS analysis. The data are calculated as the average of three different experiments as relative units of treated over untreated cells. The error bars are represented as the standard error of the mean (SEM).
B,C. LC3 processing was evaluated by Western blot after the treatment with U0126 or tunicamycin in presence or absence of STF-62247 as described above. Tubulin was used as loading control.

In assay [1] the test system is RCC4, RCC4/VHL, SN12C and SN12C-VHL shRNA cells. Nature of the assay: Acidic vesicle organelles with acridine orange (FACS). The following applies: 1.25 μM, VHL-deficient versus wild-type VHL cells. As for the experimental part:
Quantification of Acidic Vesicle Organelles with Acridine Orange. In acridine orange-stained cells, the cytoplasm and nucleus are bright green and dim red, whereas acidic compartments are bright red. The intensity of the red fluorescence is proportional to the degree of acidity. Following 20 hours of treatment with STF-62247 or analogs, cells were stained with 1 μg/ml of acridine orange for 15 min. Cells were trypsinized and then analyzed by flow cytometry using FACScan cytometer and CellQuest software.
as §1
A. RCC4 and RCC4/VHL were treated with 1.25 μM of each 19 analogs for 20 hours and the presence of vacuoles was examined under light microscopy. B. Western blot for LC3 after treatment with each compound. Tubulin was used as loading control. Ratio is the relative from the IC50 in RCC4/VHL cells/IC50 in RCC4 cells. C. Acidic vesicle organelles (AVO) measured by FACS analysis in cells treated with 1.25 μM of STF-62247 or with compounds 21, 15, 25, 47, and 53 and stained with acridine orange.

Entries after “also recorded” stand apart in the source; their conditions may differ.

`Cc1cccc(Nc2nc(-c3ccncc3)cs2)c1` [Compound 5, N-(3-Methylphenyl)-4-(4-pyridinyl)-1,3-thiazol-2-amine]: the induction of apoptosis entry in the assay with RCC4 and RCC4/VHL cells was “did not induce apoptosis”. Moreover, the “LC3-II (lipidated form)” value in the assay on LC3 is reported as “induced by STF-62247 treatment; also recorded: increases in a concentration-dependent manner”. Further, the “acridine orange staining / amount of AVOs” value in assay [1] is “significantly increased in VHL-deficient RCC4 cells compared to their wild-type VHL counterparts”.
